pEC50: −log10 of the molar value. Like-named read-outs stand apart in the source and are kept apart here.
Molecular target: FXR (Homo sapiens (Human), UniProt Q96RI1)
Experiment: transient human FXR/Gal4-luciferase reporter assay
Format: cell-based
Experimental: A Gal4-hFXR fusion construct reporter system was used as the primary assay to characterize compound activity. A construct including 5 copies of the Gal4 promoter response element upstream of a firefly luciferase reporter cDNA was stably expressed in HEK293 cells. This reporter cell line was maintained in Dulbecco's Modified Eagle's medium (DMEM; Gibco) supplemented with 1% penicillin-streptomycin (P/S) solution, 500 μg/mL Zeocin and 10% charcoal/dextran-treated fetal bovine serum (cs-FBS) at 37° C. in a humidified 5% CO2 atmosphere. Another plasmid was constructed in which the human cytomegalovirus promoter in the pcDNA3.1 vector directs the expression of the cDNA encoding a fusion protein comprised of the DNA binding domain from the Gal4 transcription factor fused to the ligand binding domain from human FXR.
The day prior to transfection, the reporter cells in culture are detached from the plate with trypsin and plated into a T75 flask at a sufficient density to achieve approximately 90% confluence the next morning. The transfection reagents are prepared by separately diluting 25 μg of the pcDNA3.1-Gal4-FXR plasmid into 1.87 mL of Opti-MEM (Thermo-Fisher), and 40 μL of Lipofectamine 2000 (Thermo-Fisher) into 1.87 mL of Opti-MEM, and then adding the diluted DNA solution into the diluted Lipofectamine 2000 solution and incubating at room temperature for 15-20 minutes. The mixture is further diluted with 10 mL of a solution comprised of DMEM, 10% cs-FBS, and 1% P/S immediately prior to transferring to the cells. The maintenance culture media is aspirated from the cells and the final transfection mixture is added before the cells are incubated overnight at 37° C. in a humidified 5% CO2 atmosphere. This protocol can be scaled up, and the transiently transfected cells can be cryopreserved in an assay-ready format.
For compound testing, 100 nL of the compounds (serial dilutions in DMSO) are dispensed with an Echo acoustic dispenser (Labcyte) into the wells of a Corning/Costar clear bottom 384-well white plate. The transfected cells are harvested, counted, and diluted such that 10-25,000 cells in 25 μL are plated into each well of the 384-well compound assay plate. The compound-treated cells are incubated overnight at 37° C. in a humidified 5% CO2 atmosphere. The next morning 25 μL of Steady-Glo (Promega) are added to each well of the plate, the mixture is incubated for 15 min. with shaking, and luminescence is measured on an Envision (Perkin Elmer) plate reader.

[1] = Gal4-hFXR fusion construct, HEK293 reporter cells, response relative to 8 μM GW-4064

Chain of FXR (Q96RI1 262-486): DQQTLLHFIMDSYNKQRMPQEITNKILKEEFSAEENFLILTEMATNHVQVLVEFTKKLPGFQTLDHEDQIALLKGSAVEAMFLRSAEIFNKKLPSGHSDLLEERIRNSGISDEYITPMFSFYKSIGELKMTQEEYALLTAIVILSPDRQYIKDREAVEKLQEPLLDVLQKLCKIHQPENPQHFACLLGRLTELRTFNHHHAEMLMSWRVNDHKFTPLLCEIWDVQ

CCOc1cnc(-c2cccc(N(CC34CCC(c5ccc(C(F)(F)F)cn5)(CC3)CC4)C(=O)C34CC(F)(C3)C4)c2)nc1 [Example 498, N-(3-(5-ethoxypyrimidin-2-yl)phenyl)-3-fluoro-N-((4-(5-(trifluoromethyl)pyridin-2-yl)bicyclo[2.2.2]octan-1-yl)methyl)bicyclo[1.1.1]pentane-1-carboxamide]
pEC50: 6.28

CC(C)(O)c1ccc(-c2cccc(N(CC34CCC(c5noc(C(C)(C)F)n5)(CC3)CC4)C(=O)N[C@H]3C[C@]4(C[C@@H](O)C4)C3)c2)cc1 (stereo partly drawn) [Example 664, 1-((4-(5-(2-fluoropropan-2-yl)-1,2,4-oxadiazol-3-yl)bicyclo[2.2.2]octan-1-yl)methyl)-1-(4′-(2-hydroxypropan-2-yl)-[1,1′-biphenyl]-3-yl)-3-((2S,4S,6S)-6-hydroxyspiro[3.3]heptan-2-yl)urea]
pEC50 [1]: 7.33

CC(C)(C)c1noc(C23CCC(CN(C(=O)C45CC(F)(C4)C5)c4cccc(-c5ccc(NS(C)(=O)=O)cc5)c4)(CC2)CC3)n1 [Example 361, N-((4-(3-(tert-butyl)-1,2,4-oxadiazol-5-yl)bicyclo[2.2.2]octan-1-yl)methyl)-3-fluoro-N-(4′-(methylsulfonamido)-[1,1′-biphenyl]-3-yl)bicyclo[1.1.1]pentane-1-carboxamide]
pEC50 [1]: 6.07

CCOc1ncc(-c2cccc(N(CC34CCC(c5noc(C6(C)CC6)n5)(CC3)CC4)C(=O)C34CC(F)(C3)C4)c2)cn1 [Example 396, N-(3-(2-ethoxypyrimidin-5-yl)phenyl)-3-fluoro-N-((4-(5-(1-methylcyclopropyl)-1,2,4-oxadiazol-3-yl)bicyclo[2.2.2]octan-1-yl)methyl)bicyclo[1.1.1]pentane-1-carboxamide]
pEC50 [1]: 7.34

CC1(c2nc(C34CCC(CN(C(=O)C56CC(F)(C5)C6)c5cccc(-c6ccc(OC(F)F)cc6)c5)(CC3)CC4)no2)CC1 [Example 405, N-(4′-(difluoromethoxy)-[1,1′-biphenyl]-3-yl)-3-fluoro-N-((4-(5-(1-methylcyclopropyl)-1,2,4-oxadiazol-3-yl)bicyclo[2.2.2]octan-1-yl)methyl)bicyclo[1.1.1]pentane-1-carboxamide]
pEC50 [1]: 7.28

CC(C)(C)c1noc(C23CCC(CN(C(=O)C45CC(F)(C4)C5)c4cccc(-c5cnc(C6CC6)nc5)c4)(CC2)CC3)n1 [Example 358, N-((4-(3-(tert-butyl)-1,2,4-oxadiazol-5-yl)bicyclo[2.2.2]octan-1-yl)methyl)-N-(3-(2-cyclopropylpyrimidin-5-yl)phenyl)-3-fluorobicyclo[1.1.1]pentane-1-carboxamide]
pEC50 [1]: 6.81

CC(C)(C#N)Oc1ccc(-c2ccnc(N(CC34CCC(c5nc(C6CC6)no5)(CC3)CC4)C(=O)OC(C)(C)C(F)(F)F)c2)cc1 [Example 622, 1,1,1-trifluoro-2-methylpropan-2-yl(4-(4-((2-cyanopropan-2-yl)oxy)phenyl)pyridin-2-yl) ((4-(3-cyclopropyl-1,2,4-oxadiazol-5-yl)bicyclo[2.2.2]octan-1-yl)methyl)carbamate]
pEC50 [1]: 7.47

CC(C)(O)Cn1cc(-c2cc(N(CC34CCC(c5noc(C(C)(F)F)n5)(CC3)CC4)C(=O)NC34CC(C3)C4)ccc2F)cn1 [Example 633, 3-(bicyclo[1.1.1]pentan-1-yl)-1-((4-(5-(1,1-difluoroethyl)-1,2,4-oxadiazol-3-yl)bicyclo[2.2.2]octan-1-yl)methyl)-1-(4-fluoro-3-(1-(2-hydroxy-2-methylpropyl)-1H-pyrazol-4-yl)phenyl)urea]
pEC50 [1]: 7.49

O=C(N(CC12CCC(c3ccc(C(F)(F)F)cn3)(CC1)CC2)c1cccc(-c2cnc(C3CC3)nc2)c1)C12CC(F)(C1)C2 [Example 490, N-(3-(2-cyclopropylpyrimidin-5-yl)phenyl)-3-fluoro-N-((4-(5-(trifluoromethyl)pyridin-2-yl)bicyclo[2.2.2]octan-1-yl)methyl)bicyclo[1.1.1]pentane-1-carboxamide]
pEC50: 6.48

CC(C)(O)c1ccc(-c2ccnc(N(CC34CCC(c5ccc(C(C)(F)F)cn5)(CC3)CC4)C(=O)OC(C)(C)C(F)(F)F)c2)nc1 [Example 607, 1,1,1-trifluoro-2-methylpropan-2-yl ((4-(5-(1,1-difluoroethyl)pyridin-2-yl)bicyclo[2.2.2]octan-1-yl)methyl)(5-(2-hydroxypropan-2-yl)-[2,4′-bipyridin]-2′-yl)carbamate]
pEC50 [1]: 7.02

COc1ccc(-c2cccc(N(CC34CCC(c5nc(C6CC6)no5)(CC3)CC4)C(=O)C34CC(F)(C3)C4)c2)cc1C#N [Example 296, N-(3′-cyano-4′-methoxy-[1,1′-biphenyl]-3-yl)-N-((4-(3-cyclopropyl-1,2,4-oxadiazol-5-yl)bicyclo[2.2.2]octan-1-yl)methyl)-3-fluorobicyclo[1.1.1]pentane-1-carboxamide]
pEC50 [1]: 6.53

O=C(C1CC(F)(F)C1)N(CC12CCC(c3nc(C4CC4)no3)(CC1)CC2)c1cccc(-c2ccnc(OC3CC3)n2)c1 [Example 338, N-(3-(2-cyclopropoxypyrimidin-4-yl)phenyl)-N-((4-(3-cyclopropyl-1,2,4-oxadiazol-5-yl)bicyclo[2.2.2]octan-1-yl)methyl)-3,3-difluorocyclobutane-1-carboxamide]
pEC50 [1]: 5.86

CC(C)(C)c1nc(C23CCC(CN(C(=O)C45CC(F)(C4)C5)c4cccc(-c5ncc(OC(F)F)cn5)c4)(CC2)CC3)no1 [Example 452, N-((4-(5-(tert-butyl)-1,2,4-oxadiazol-3-yl)bicyclo[2.2.2]octan-1-yl)methyl)-N-(3-(5-(difluoromethoxy)pyrimidin-2-yl)phenyl)-3-fluorobicyclo[1.1.1]pentane-1-carboxamide]
pEC50 [1]: 7.77

Cc1nc2ccc(-c3cccc(N(CC45CCC(c6nnc(C7CC7)o6)(CC4)CC5)C(=O)C45CC(F)(C4)C5)c3)cc2s1 [Example 561, N-((4-(5-cyclopropyl-1,3,4-oxadiazol-2-yl)bicyclo[2.2.2]octan-1-yl)methyl)-3-fluoro-N-(3-(2-methylbenzo[d]thiazol-6-yl)phenyl)bicyclo[1.1.1]pentane-1-carboxamide]
pEC50 [1]: 7.24

CC1(c2nc(C34CCC(CN(C(=O)C56CC(F)(C5)C6)c5cccc(-c6ccc(NS(C)(=O)=O)cc6)c5)(CC3)CC4)no2)CC1 [Example 398, 3-fluoro-N-((4-(5-(1-methylcyclopropyl)-1,2,4-oxadiazol-3-yl)bicyclo[2.2.2]octan-1-yl)methyl)-N-(4′-(methylsulfonamido)-[1,1′-biphenyl]-3-yl)bicyclo[1.1.1]pentane-1-carboxamide]
pEC50 [1]: 7.03

CS(=O)(=O)Nc1cccc(-c2cccc(N(CC34CCC(c5nc(C6CC6)no5)(CC3)CC4)C(=O)C34CC(F)(C3)C4)c2)c1 [Example 256, N-((4-(3-cyclopropyl-1,2,4-oxadiazol-5-yl)bicyclo[2.2.2]octan-1-yl)methyl)-3-fluoro-N-(3′-(methylsulfonamido)-[1,1′-biphenyl]-3-yl)bicyclo[1.1.1]pentane-1-carboxamide]
pEC50 [1]: 6.66

Cc1ccc(-c2cccc(N(CC34CCC(c5nc(C6CC6)no5)(CC3)CC4)C(=O)C34CC(F)(C3)C4)c2)nc1 [Example 325, N-((4-(3-cyclopropyl-1,2,4-oxadiazol-5-yl)bicyclo[2.2.2]octan-1-yl)methyl)-3-fluoro-N-(3-(5-methylpyridin-2-yl)phenyl)bicyclo[1.1.1]pentane-1-carboxamide]
pEC50 [1]: 7.62

CCOc1ncc(-c2cccc(N(CC34CCC(c5nc(C6CC6)no5)(CC3)CC4)C(=O)C34CC(F)(C3)C4)c2)cn1 [Example 289, N-((4-(3-cyclopropyl-1,2,4-oxadiazol-5-yl)bicyclo[2.2.2]octan-1-yl)methyl)-N-(3-(2-ethoxypyrimidin-5-yl)phenyl)-3-fluorobicyclo[1.1.1]pentane-1-carboxamide]
pEC50 [1]: 7.32

CC(C)c1noc(C23CCC(CN(C(=O)C45CC(F)(C4)C5)c4cccc(-c5cnc(C(F)(F)F)nc5)c4)(CC2)CC3)n1 [Example 384, 3-fluoro-N-((4-(3-isopropyl-1,2,4-oxadiazol-5-yl)bicyclo[2.2.2]octan-1-yl)methyl)-N-(3-(2-(trifluoromethyl)pyrimidin-5-yl)phenyl)bicyclo[1.1.1]pentane-1-carb oxamide]
pEC50 [1]: 6.74

CC(C)(C#N)Oc1ccc(-c2cccc(N(CC34CCC(c5noc(C(C)(C)F)n5)(CC3)CC4)C(=O)N3CCC(C(C)(C)O)CC3)c2)cc1 [Example 651, N-(4′-((2-cyanopropan-2-yl)oxy)-[1,1′-biphenyl]-3-yl)-N-((4-(5-(2-fluoropropan-2-yl)-1,2,4-oxadiazol-3-yl)bicyclo[2.2.2]octan-1-yl)methyl)-4-(2-hydroxypropan-2-yl)piperidine-1-carboxamide]
pEC50 [1]: 6.56
